US20220031800A1, “PEPTIDES FOR TREATING NON-EXUDATIVE MACULAR DEGENERATION AND OTHER DISORDERS OF THE EYE” (Allegro Pharmaceuticals, LLC, priority 2019, published 2022)
Square brackets hold non-standard residues; d marks the D form. Peptide text beside a SMILES is read from it. Cya = N[C@@H](CS(=O)(=O)O)C(=O)O

System: study eye of subjects with intermediate non-exudative AMD
Assay: SD-OCT Analysis 2 (thickness, volume, map coverage of retinal layers)
Type: in vivo, human
Protocol: Numerous study assessments were conducted at various time points throughout the study. Included among these study assessments were; refractive eye examinations, determinations of BCVA AND low-luminance BCVA, Lanthony D-15 color vision test, measurement of intraocular pressure (IOP), Indirect ophthalmoscopy/dilated fundus examinations and spectral-domain optical coherence tomography (SD-OCT). Also, blood and saliva samples were obtained from each subject for genetic analysis. The above-listed study assessments were performed at the time points indicated in Table 1, below: The OCT scans were analyzed by two (2) unrelated experts. In Analysis #2, the OCT images of study eyes were analyzed to determine mean thickness and mean volume of numerous retinal subfields and layer segments at baseline and at Week 12 for sham eyes and at baseline and at Week 32 for risuteganib eyes, to document any significant differences between groups of eyes based on baseline measurements or changes from baseline in those measurements. In addition to the quantitative analysis of OCT images, OCT Analysis #2 included qualitative assessment of the OCT images to identify GA, pseudodrusen, and disruption of the ELM and EZ layers. FIGS. 9A, 9B and 9C illustrate the level of varying pathology within the ELM based on quantitative mapping that were also assessed, with FIG. 9A (left) showing no ELM disruption, FIG. 9B (center) showing segmental disruption, and FIG. 9C showing diffuse disruption.

[1] = baseline to Week 32, risuteganib arm
[2] = baseline to Week 32, risuteganib arm, paired-eye analysis
[3] = baseline to Week 32, risuteganib nonresponder eyes
[4] = baseline to Week 32, risuteganib responder eyes
[5] = baseline to Week 32, risuteganib super-responder eyes
[6] = change from baseline at Week 32, Risuteganib Nonresponder eyes
[7] = change from baseline at Week 32, Risuteganib Responder eyes

SMILES: C[C@@H](O)[C@H](NC(=O)[C@H](CS(=O)(=O)O)NC(=O)CNC(=O)[C@H](CCCNC(=N)N)NC(=O)CN)C(=O)N1CCC[C@H]1C(=O)O [risuteganib, Glycyl-L-arginylglycyl-3-sulfo-L-alanyl-L-threonyl-L-proline] (H-GRG[Cya]TP-OH)
- Change in ELM-RPE mid subfield volume [1]: −0.002 mm^3
- Change in ONL-RPE central subfield volume [1]: −0.005 mm^3
- Change in ONL-RPE mid subfield volume [1]: −0.020 mm^3
- Change in mean ONL-RPE mid subfield thickness [1]: −6.441 μm
- Change in mean total retinal mid subfield thickness [1]: −2.548 μm
- Change in total retinal mid subfield volume [1]: −0.008 mm^3
- Difference in map coverage, 0 μm RPE-BM [1]: 1.282%
- Difference in map coverage, 50 μm RPE-BM [1]: −2.644%
- Difference in map coverage, 150 μm RPE-BM [1]: 2.739%
- Change in mean ELM-RPE central subfield thickness [2]: −2.912 μm
- Change in mean ONL-RPE central subfield thickness [2]: −7.216 μm
- Change in ONL-RPE mid subfield volume [3]: −0.020 mm^3
- Change in RPE-BM volume [3]: 0.037 mm^3
- Change in mean ONL-RPE mid subfield thickness [3]: −6.320 μm
- Change in mean total retinal central subfield thickness [3]: −5.981 μm
- Change in mean total retinal mid subfield thickness [3]: −4.046 μm
- Change in total retinal central subfield volume [3]: −0.004 mm^3
- Change in total retinal mid subfield volume [3]: −0.012 mm^3
- Change in total retinal volume [3]: 0.091 mm^3
- Difference in map coverage, <10 μm EZ [3]: 1.332%
- Difference in map coverage, <20 μm EZ [3]: 1.288%
- Change in ELM-RPE central subfield volume [4]: −0.002 mm^3
- Change in RPE-BM volume [4]: −0.049 mm^3
- Difference in map coverage, 50 μm RPE-BM [4]: −3.494%
- Difference in map coverage, 150 μm RPE-BM [4]: 3.335%
- Change in mean ELM-RPE central subfield thickness (baseline to Week 32, risuteganib responder eyes, paired-eye analysis): −3.102 μm
- Change in ELM-RPE central subfield volume [5]: −0.003 mm^3
- Difference in map coverage, 150 μm RPE-BM [5]: 2.943%
- Change in mean ELM-RPE central subfield thickness (baseline to Week 32, risuteganib super-responder eyes, paired-eye analysis): −3.461 μm
- Change in mean thickness, ELM-EZ central subfield [6]: −1.332 μm
- Change in mean thickness, ELM-EZ mid subfield [6]: 0.754 μm
- Change in mean thickness, ELM-RPE central subfield [6]: −2.722 μm
- Change in mean thickness, ELM-RPE foveal center [6]: −12.189 μm
- Change in mean thickness, ELM-RPE mid subfield [6]: −1.044 μm
- Change in mean thickness, EZ-RPE central subfield [6]: −1.390 μm
- Change in mean thickness, EZ-RPE foveal center [6]: −1.789 μm
- Change in mean thickness, EZ-RPE mid subfield [6]: −1.798 μm
- Change in mean thickness, Inner retina central subfield [6]: 1.896 μm
- Change in mean thickness, Inner retina mid subfield [6]: 2.274 μm
- Change in mean thickness, ONL-EZ central subfield [6]: −6.486 μm
- Change in mean thickness, ONL-EZ mid subfield [6]: −4.522 μm
- Change in mean thickness, ONL-RPE central subfield [6]: −7.877 μm
- Change in mean thickness, ONL-RPE foveal center [6]: −7.626 μm
- Change in mean thickness, ONL-RPE mid subfield [6]: −6.320 μm
- Change in mean thickness, RPE-BM central subfield [6]: −0.118 μm
- Change in mean thickness, RPE-BM foveal center [6]: −3.740 μm
- Change in mean thickness, RPE-BM mid subfield [6]: 1.114 μm
- Change in mean thickness, Total retinal central subfield [6]: −5.981 μm
- Change in mean thickness, Total retinal foveal center [6]: −9.112 μm
- Change in mean thickness, Total retinal mid subfield [6]: −4.046 μm
- Change in volume, ELM-EZ central subfield [6]: −0.001 mm^3
- Change in volume, ELM-EZ mid subfield [6]: 0.002 mm^3
- Change in volume, ELM-RPE [6]: 0.009 mm^3
- Change in volume, ELM-RPE central subfield [6]: −0.002 mm^3
- Change in volume, ELM-RPE mid subfield [6]: −0.003 mm^3
- Change in volume, EZ-RPE [6]: 0.005 mm^3
- Change in volume, EZ-RPE central subfield [6]: −0.001 mm^3
- Change in volume, EZ-RPE mid subfield [6]: −0.006 mm^3
- Change in volume, ONL-EZ central subfield [6]: −0.005 mm^3
- Change in volume, ONL-EZ mid subfield [6]: −0.014 mm^3
- Change in volume, ONL-RPE [6]: −0.026 mm^3
- Change in volume, ONL-RPE central subfield [6]: −0.006 mm^3
- Change in volume, ONL-RPE mid subfield [6]: −0.020 mm^3
- Change in volume, RPE-BM [6]: 0.037 mm^3
- Change in volume, RPE-BM central subfield [6]: 0.000 mm^3
- Change in volume, RPE-BM mid subfield [6]: 0.004 mm^3
- Change in volume, Total retinal [6]: 0.091 mm^3
- Change in volume, Total retinal central subfield [6]: −0.004 mm^3
- Change in volume, Total retinal mid subfield [6]: −0.012 mm^3
- Map coverage, 0 μm EZ [6]: 1.469%
- Map coverage, 0 μm RPE-BM [6]: 1.465%
- Map coverage, 10 μm EZ [6]: 1.332%
- Map coverage, 20 μm EZ [6]: 1.288%
- Map coverage, 50 μm RPE-BM [6]: −1.794%
- Map coverage, 150 μm RPE-BM [6]: 2.143%
- Map coverage, 250 μm RPE-BM [6]: 0.000%
- Change in mean thickness, ELM-EZ central subfield [7]: −2.322 μm
- Change in mean thickness, ELM-EZ mid subfield [7]: −0.967 μm
- Change in mean thickness, ELM-RPE central subfield [7]: −3.102 μm
- Change in mean thickness, ELM-RPE foveal center [7]: 0.000 μm
- Change in mean thickness, ELM-RPE mid subfield [7]: −2.141 μm
- Change in mean thickness, EZ-RPE central subfield [7]: −0.779 μm
- Change in mean thickness, EZ-RPE foveal center [7]: 0.975 μm
- Change in mean thickness, EZ-RPE mid subfield [7]: −1.174 μm
- Change in mean thickness, Inner retina central subfield [7]: 5.864 μm
- Change in mean thickness, Inner retina mid subfield [7]: 5.512 μm
- Change in mean thickness, ONL-EZ central subfield [7]: −5.775 μm
- Change in mean thickness, ONL-EZ mid subfield [7]: −5.386 μm
- Change in mean thickness, ONL-RPE central subfield [7]: −6.555 μm
